Measured values from US11192921B2 (priority 2017, dated 2021).
Several values for one entry are separate records, joined by “and”; a condition that tells them apart may be missing. Equal entries are not always repeated. No end group written: not given here.

How the values were obtained:
Female Kunming mice = assay type: in vivo; conditions: mouse, in vivo, ip
Kunming mice [1] = assay type: in vivo; conditions: mouse, in vivo
Kunming mice [2] = conditions: mouse, in vivo

GCCSTPPCAVLYC (cysteine pairing not given here) [Conotoxin, reference compound]
Pain threshold (Female Kunming mice): 27.29 ± 0.48 s and 29.32 ± 0.18 s and 24.1 ± 0.28 s and 30.39 ± 0.28 s and 27.39 ± 0.28 s and 26.21 ± 0.38 s and 24.63 ± 0.12 s | Pain threshold (tail flick) (Kunming mice [1]): 2.23 ± 0.18 s and 2.32 ± 0.28 s and 2.21 ± 0.12 s and 2.31 ± 0.18 s and 2.12 ± 0.12 s and 2.63 ± 0.12 s | cumulative foot licking time, Phase I (Kunming mice [2]): 50.38 ± 9.38 | cumulative foot licking time, Phase II (Kunming mice [2]): 53.64 ± 15.32
